In US9365522B2, “Pyrazole amide derivative” (AMGEN INC., priority 2015, dated 2016):

Target: T1, human RORγ-LBD (Homo sapiens, UniProt P51449)
T1 construct: made in house; host or cells: E. coli (BL-21)
T1 sequence (P51449 262-518): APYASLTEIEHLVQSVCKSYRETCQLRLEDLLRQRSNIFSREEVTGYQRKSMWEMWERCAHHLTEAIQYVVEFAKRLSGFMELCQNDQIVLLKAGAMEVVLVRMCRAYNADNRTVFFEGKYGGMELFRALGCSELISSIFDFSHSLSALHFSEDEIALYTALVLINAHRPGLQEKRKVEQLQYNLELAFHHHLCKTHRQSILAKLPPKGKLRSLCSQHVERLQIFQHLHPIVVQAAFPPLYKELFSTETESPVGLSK
Test: ROR gamma coactivator peptide recruitment Alphascreen assay (RORγ-LBD binding to GRIP1 coactivator peptide)
Type: biochemical
Conditions: 5 nM human RORγ-LBD, 30 nM 7-β-hydroxycholesterol, 50 nM biotinylated GRIP1 coactivator peptide, overnight incubation at room temperature; read-out: result (pIC50, RORγ coactivator peptide recruitment Alphascreen assay) (converted)
Summary of the method: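 His/Flag-tagged human RORγ-LBD (aa 262-518, E. coli-expressed, 5 nM) with agonist 7-β-hydroxycholesterol (30 nM) and biotinylated GRIP1 LXXLL peptide (50 nM) in HEPES pH 7.4 buffer, 2.5% DMSO. Compound 1-in-2 dilutions; Alphascreen bead signal read after overnight incubation at room temperature; pIC50 calculated.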

Structure (SMILES) | IC50 [µM]
O=C(CN(CC1(F)CCCC1)C(=O)c1cnn([C@H]2CC[C@@H](C(=O)O)CC2)c1C(F)(F)F)c1c(Cl)cncc1Cl [Example 667, cis-4-(4-((2-(3,5-dichloro-4-pyridinyl)-2-oxoethyl)((1-fluorocyclopentyl)methyl)carbamoyl)-5-(trifluoromethyl)-1H-pyrazol-1-yl)cyclohexanecarboxylic acid] | 0.302
CC1(C)CC(CN(CC(=O)c2c(Cl)cccc2Cl)C(=O)c2cnn([C@H]3C[C@H](CC(=O)O)C3)c2C(F)(F)F)C1 [Example 668, (trans-3-(4-((2-(2,6-dichlorophenyl)-2-oxoethyl)((3,3-dimethylcyclobutyl)methyl)carbamoyl) 5-(trifluoromethyl)-1H-pyrazol-1-yl)cyclobutyl)acetic acid] | 0.00347
CC1(C)CC(CN(CC(=O)c2c(Cl)cccc2Cl)C(=O)c2cnn([C@H]3C[C@@H](CC(=O)O)C3)c2C(F)(F)F)C1 [Example 669, (cis-3-(4-((2-(2,6-dichlorophenyl)-2-oxoethyl)((3,3-dimethylcyclobutyl)methyl)carbamoyl) 5-(trifluoromethyl)-1H-pyrazol-1-yl)cyclobutyl)acetic acid] | 0.00407
CC(C)(C)CN(CC(=O)c1c(Cl)cccc1Cl)C(=O)c1cnn([C@H]2CC[C@@H](C(=O)O)CC2)c1C(F)(F)F [Example 670, cis-4-(4-((2-(2,6-dichlorophenyl)-2-oxoethyl)(2,2-dimethylpropyl)carbamoyl)-5-(trifluoromethyl)-1H-pyrazol-1-yl)cyclohexanecarboxylic acid] | 0.0219

Other lines, results leading:

IC50 [µM] | Structure (SMILES)
0.000871 | CC1(CN(CC(=O)c2c(Cl)cc(F)cc2Cl)C(=O)c2cnn([C@H]3CC[C@](C)(C(=O)O)CC3)c2C(F)(F)F)CCCC1 [Example 671, trans-4-(4-((2-(2,6-dichloro-4-fluorophenyl)-2-oxoethyl)((1-methylcyclopentyl)methyl)carbamoyl)-5-(trifluoromethyl)-1H-pyrazol-1-yl)-1-methylcyclohexanecarboxylic acid]
0.00204 | CC1(C)CC(CN(CC(=O)c2c(Cl)cccc2Cl)C(=O)c2cnn([C@H]3CC[C@@](C)(C(=O)O)CC3)c2C(F)(F)F)C1 [Example 672, trans-4-(4-((2-(2,6-dichlorophenyl)-2-oxoethyl)((3,3-dimethylcyclobutyl)methyl)carbamoyl)-5-(trifluoromethyl)-1H-pyrazol-1-yl)-1-methylcyclohexanecarboxylic acid]
0.0363 | CC1(C)CC[C@@H](CN(CC(=O)c2c(Cl)cncc2Cl)C(=O)c2cnn([C@H]3CC[C@](C)(C(=O)O)CC3)c2C(F)(F)F)O1 [Example 673, trans-4-(4-((2-(3,5-dichloro-4-pyridinyl)-2-oxoethyl)(((2S)-5,5-dimethyltetrahydro-2-furanyl)methyl)carbamoyl)-5-(trifluoromethyl)-1H-pyrazol-1-yl)-1-methylcyclohexanecarboxylic acid]
0.0178 | CC1(C)CC[C@H](CN(CC(=O)c2c(Cl)cncc2Cl)C(=O)c2cnn([C@H]3CC[C@](C)(C(=O)O)CC3)c2C(F)(F)F)O1 [Example 674, trans-4-(4-((2-(3,5-dichloro-4-pyridinyl)-2-oxoethyl)(((2S)-5,5-dimethyltetrahydro-2-furanyl)methyl)carbamoyl)-5-(trifluoromethyl)-1H-pyrazol-1-yl)-1-methylcyclohexanecarboxylic acid]
0.234 | CC1(CN(CC(=O)c2c(Cl)cncc2Cl)C(=O)c2cnn([C@H]3CC[C@](C)(C(=O)O)CC3)c2C(F)(F)F)COC1 [Example 675, trans-4-(4-((2-(3,5-dichloro-4-pyridinyl)-2-oxoethyl)((3-methyl-3-oxetanyl)methyl)carbamoyl)-5-(trifluoromethyl)-1H-pyrazol-1-yl)-1-methylcyclohexanecarboxylic acid]
